Source: patent publication US8158635B2, “Solid forms comprising 4-[9-(tetrahydro-furan-3-yl)-8-(2,4,6-trifluoro-phenylamino)-9H-purin-2-ylamino]-cyclohexan-1-ol, compositions thereof, and uses therewith” (Signal Pharmaceuticals, LLC, priority 2006, dated 2012)
≈ marks a conversion by molar mass, not a printed value. Like-named read-outs stand apart in the source and are kept apart here.

Assays:
Type in all cases: physicochemical
[1] = Approximate solubilities of solid forms in solvents; conditions: thermodynamic from solid, about 25° C., at least 24 hours, read-out: Approximate Solubility (mg/mL) of Form A of the Free Base of Compound I
Procedure: A weighed sample comprising either the free base or the HCl salt of Compound I was treated with 2 mL of a solvent (either HPLC or reagent grade). The resulting mixture was agitated for at least 24 hours at about 25° C. When all of the solids were dissolved by visual inspection, the estimated solubility was calculated. The solubility was estimated from these experiments based on the total volume of solvent used to give a complete solution. The actual solubility may be greater than those calculated due to the use of a large amount of solvent or a slow rate of dissolution. A known volume of filtrate was evaporated to dryness and the weight of the residue was measured.

[2] = Compression testing, form checked by XRPD; conditions: about 2000-psi pressure for about 1 min
Procedure: (§1) In certain embodiments, Form A of the free base of Compound I is stable during drying at temperatures up to about 40-45° C. In certain embodiments, the crystallization and/or recrystallization of Form A of the free base of Compound I provides an effective means of purification by removing or reducing the levels of chemical impurities (such as, e.g., one or more of the chemical compounds provided in FIG. 14) in the resulting material. In certain embodiments, Form A of the free base of Compound I is substantially pure. […] In certain embodiments, Form A of the free base of Compound I is stable upon compression.
X-ray powder diffraction (XRPD) measurements were performed in accordance with United States Pharmacopeia (USP) monograph <941> entitled “X-ray Diffraction” (See, e.g., The United States Pharmacopeia, The National Formulary, 2003, The Unites States Pharmacopeial Convention, Inc., Rockville, Md., 2002, which is herein incorporated by reference in its entirety). A Thermo ARL X'TRA X-ray powder diffractometer (Thermo Electron Corp., Waltham, Mass.), equipped with Nickel-filtered Cu Kα radiation at 1.54 Å, was used for XRPD measurements from about 1.5 °2θ to about 40 °2θ, with a step size of about 0.020°, a count time of about 0.50 seconds per step, and a step scan rate of about 2.40°/min. […] Diffracted radiation was measured using a Peltier-cooled Si (Li) solid-state detector. […]

[3] = Equilibration of solid form in solvent for 4 weeks at 40° C., resulting form by XRPD
Procedure: Equilibration slurry and evaporation experiments were carried out by adding an excess of Compound I free base or HCl salt to 2 mL of solvent. […] Upon reaching equilibrium, the saturated supernatant solution was removed and allowed to evaporate slowly in an open vial under nitrogen at 25° C. or 50° C., respectively. The slurry resulting from the equilibration was filtered and air-dried. X-ray powder diffraction (XRPD) measurements were performed in accordance with United States Pharmacopeia (USP) monograph <941> entitled “X-ray Diffraction” (See, e.g., The United States Pharmacopeia, The National Formulary, 2003, The Unites States Pharmacopeial Convention, Inc., Rockville, Md., 2002, which is herein incorporated by reference in its entirety). A Thermo ARL X'TRA X-ray powder diffractometer (Thermo Electron Corp., Waltham, Mass.), equipped with Nickel-filtered Cu Kα radiation at 1.54 Å, was used for XRPD measurements from about 1.5 °2θ to about 40 °2θ, with a step size of about 0.020°, a count time of about 0.50 seconds per step, and a step scan rate of about 2.40°/min. The instrument was equipped with a fine focus X-ray tube. The voltage and amperage were set at 45 kV and 40 mA, respectively. The divergence slits were set at 0.5 mm and 0.2 mm. Diffracted radiation was measured using a Peltier-cooled Si (Li) solid-state detector. Representative XRPD patterns were presented displaying intensity (counts per second) versus position (°2θ). A sintered alumina standard was used to check peak positions. Peak positions may vary from sample to sample by approximately ±0.1 °2θ. Variation in peak position may depend upon multiple factors, including particle size, sample preparation, data collection temperature and parameters. Variation in peak intensity may occur, e.g., as a result of preferred orientation and/or variation in crystal habit.

Stability during drying = conditions: temperatures up to about 40-45° C.
Procedure: as §1
Crude 4-[9-(tetrahydro-furan-3-yl)-8-(2,4,6-trifluoro-phenylamino)-9H-purin-2-ylamino]-cyclohexan-1-ol (“Compound I”) (5 g) was dissolved in ethanol (35 ml, 7 vol) at reflux (78-82° C.). Water (75 ml, 15 vol) was added, maintaining the temperature above 75° C. The solution was seeded (0.5-1%) and allowed to cool to ambient temperature (20-25° C.) over 4-6 h. The product was collected by filtration and washed with water (25 ml, 5 vol) then dried (18 h, 40-45° C.) to yield Form A of the free base of Compound I as an off-white crystalline solid. Form A is the imine tautomer of 4-[9-(terahydro-furan-3-yl)-8-(2,4,6-trifluoro-phenylamino)-9H-purin-2-ylamino]-cyclonhexan-1-ol having the structure: […]

- solubility ([1]; 2-propanol, 25 °C, organic solvent or mixture, column 1, solvent 2-Propanol): 15.7 mg/mL (≈ 34.9 mM)
- solubility ([1]; 2-propanol, 25 °C, organic solvent or mixture, solvent 2-Propanol): 6.39 mg/mL (≈ 14.2 mM)
- solubility ([1]; absolute ethanol, 25 °C, organic solvent or mixture, column 1, solvent Absolute ethanol): 47.1 mg/mL (≈ 105 mM)
- solubility ([1]; absolute ethanol, 25 °C, organic solvent or mixture, solvent Absolute ethanol): > 50 mg/mL
- solubility ([1]; acetone, 25 °C, organic solvent or mixture, column 1, solvent Acetone): 11.6 mg/mL (≈ 25.8 mM)
- solubility ([1]; acetone, 25 °C, organic solvent or mixture, solvent Acetone): 1.14 mg/mL (≈ 2.54 mM)
- solubility ([1]; acetonitrile, 25 °C, organic solvent or mixture, column 1, solvent Acetonitrile): 2.58 mg/mL (≈ 5.75 mM)
- solubility ([1]; acetonitrile, 25 °C, organic solvent or mixture, solvent Acetonitrile): 1.56 mg/mL (≈ 3.48 mM)
- solubility ([1]; ethanol/water (1/1), 25 °C, aqueous with cosolvent or surfactant or cyclodextrin, column 1, solvent Ethanol/Water (1/1)): 11.6 mg/mL (≈ 25.9 mM)
- solubility ([1]; ethanol/water (1/1), 25 °C, aqueous with cosolvent or surfactant or cyclodextrin, solvent Ethanol/Water (1/1)): > 50 mg/mL
- solubility ([1]; ethyl acetate, 25 °C, organic solvent or mixture, column 1, solvent Ethyl acetate): 3.91 mg/mL (≈ 8.72 mM)
- solubility ([1]; ethyl acetate, 25 °C, organic solvent or mixture, solvent Ethyl acetate): 0.02 mg/mL (≈ 0.0446 mM)
- solubility ([1]; heptane, 25 °C, organic solvent or mixture, column 1, solvent Heptane): 0.55 mg/mL (≈ 1.23 mM)
- solubility ([1]; heptane, 25 °C, organic solvent or mixture, solvent Heptane): 0.51 mg/mL (≈ 1.14 mM)
- solubility ([1]; methanol, 25 °C, organic solvent or mixture, column 1, solvent Methanol): > 50 mg/mL
- solubility ([1]; methanol, 25 °C, organic solvent or mixture, solvent Methanol): > 50 mg/mL
- solubility ([1]; methyl ethyl ketone, 25 °C, organic solvent or mixture, column 1, solvent Methyl ethyl ketone): 8.74 mg/mL (≈ 19.5 mM)
- solubility ([1]; methyl ethyl ketone, 25 °C, organic solvent or mixture, solvent Methyl ethyl ketone): 0.68 mg/mL (≈ 1.52 mM)
- solubility ([1]; methyl t-butyl ether, 25 °C, organic solvent or mixture, column 1, solvent Methyl t-butyl ether): 1.1 mg/mL (≈ 2.45 mM)
- solubility ([1]; methylene chloride, 25 °C, organic solvent or mixture, column 1, solvent Methylene chloride): 11.6 mg/mL (≈ 25.8 mM)
- solubility ([1]; methylene chloride, 25 °C, organic solvent or mixture, solvent Methylene chloride): 5 mg/mL (≈ 11.1 mM)
- solubility ([1]; n-butanol, 25 °C, organic solvent or mixture, column 1, solvent n-Butanol): 19.3 mg/mL (≈ 43.1 mM)
- solubility ([1]; n-butanol, 25 °C, organic solvent or mixture, solvent n-Butanol): 7.5 mg/mL (≈ 16.7 mM)
- solubility ([1]; organic solvent or mixture, solvent Methyl t-butyl ether): 0.46 mg/mL (≈ 1.03 mM)
- solubility ([1]; tetrahydrofuran, 25 °C, organic solvent or mixture, column 1, solvent Tetrahydrofuran): > 50 mg/mL
- solubility ([1]; tetrahydrofuran, 25 °C, organic solvent or mixture, solvent Tetrahydrofuran): 2.03 mg/mL (≈ 4.53 mM)
- solubility ([1]; toluene, 25 °C, organic solvent or mixture, column 1, solvent Toluene): 0.36 mg/mL (≈ 0.803 mM)
- solubility ([1]; toluene, 25 °C, organic solvent or mixture, solvent Toluene): 0.04 mg/mL (≈ 0.0892 mM)
- solubility ([1]; water, 25 °C, water, column 1, solvent Water): 0.41 mg/mL (≈ 0.914 mM)
- solubility ([1]; water, 25 °C, water, solvent Water): > 50 mg/mL
- XRPD pattern after compression testing [2]: substantially unchanged
- Resulting Form by XRPD ([3]; Equilibrate Form A in 2-Propanol for 4 weeks at 40° C.): Compound I Free Base Form A
- Resulting Form by XRPD ([3]; Equilibrate Form A in Acetone for 4 weeks at 40° C.): Compound I Free Base Form A
- Resulting Form by XRPD ([3]; Equilibrate Form A in Acetonitrile for 4 weeks at 40° C.): Compound I Free Base Form A
- Resulting Form by XRPD ([3]; Equilibrate Form A in Ethyl acetate for 4 weeks at 40° C.): Compound I Free Base Form A
- Resulting Form by XRPD ([3]; Equilibrate Form A in Heptane for 4 weeks at 40° C.): Compound I Free Base Form A
- Resulting Form by XRPD ([3]; Equilibrate Form A in MTBE for 4 weeks at 40° C.): Compound I Free Base Form A
- Resulting Form by XRPD ([3]; Equilibrate Form A in Toluene for 4 weeks at 40° C.): Compound I Free Base Form A
- Resulting Form by XRPD ([3]; Equilibrate Form A in Water for 4 weeks at 40° C.): Compound I Free Base Form A
- stability during drying (Stability during drying): stable
SMILES: O[C@H]1CC[C@H](Nc2ncc3nc(Nc4c(F)cc(F)cc4F)n([C@H]4CCOC4)c3n2)CC1 (stereo in doubt) [Form A of the Free Base of Compound I, 4-[9-(tetrahydro-furan-3-yl)-8-(2,4,6-trifluoro-phenylamino)-9H-purin-2-ylamino]-cyclohexan-1-ol]
